Structures are written as SMILES.

One assay concerns MCH receptors. Nature of the assay: MCH receptor activity class (method not given). To be noted: MCH receptor activity class 1-3 (percent of control at 10^-7 M or IC50).
Consider `COc1cccc(CNC(=S)N[C@H]2CC[C@@H](Nc3nccc(N(C)C)n3)CC2)c1OC` [compound 2333], for which the class is recorded as 3 (Class 3 The value of percent of control at 10^−7 M was more than 60% or the value of IC50 was more than 200 nM.).

Take `CN(C)c1cc(N[C@H]2CC[C@@H](CNC(=O)Nc3c(Cl)cc(Cl)cc3Cl)CC2)nc2ccccc12` [compound 2369, N-[(cis-4-{[4-(dimethylamino)quinolin-2-yl]amino}cyclohexyl)methyl]-N′-(2,4,6-trichlorophenyl)urea]: the class is 1 (Class 1: The value of percent of control at 10^−7 M was less than 40% or the value of IC50 was less than 50 nM.).

Consider `COc1ccc(C)cc1NC(=O)NC[C@H]1CC[C@@H](Nc2nccc(N(C)C)n2)CC1` [compound 2446], for which the class is listed as 2 (Class 2: The value of percent of control at 10^−7 M was from 40% to 60% or the value of IC′50 was from 50 nM to 200 nM.).

Still in this assay, the particulars now being: MCH receptor; class by percent of control at 10^-7 M or IC50.
For the compound `CN(C)c1cc(N[C@H]2CC[C@@H](NC(=O)c3cc(C(F)(F)F)ccc3F)CC2)nc2ccccc12` [compound 65], the class was 3 (Class 3 The value of percent of control at 10^−7 M was more than 60% or the value of IC50 was more than 200 nM.).

For `CN(C)c1nc(N[C@H]2CC[C@@H](NC(=S)NCc3cccc(F)c3)CC2)nc2c1CCCC2` [compound 2043], the class is 3 (Class 3 The value of percent of control at 10^−7 M was more than 60% or the value of IC50 was more than 200 nM.).

Turning to `CN(C)c1cc(N[C@H]2CC[C@@H](CNC(=O)c3cccc(I)c3)CC2)nc2ccccc12` [compound 185, N-[(cis-4-{[4-(dimethylamino)quinolin-2-yl]amino}cyclohexyl)methyl]-3-iodobenzamide], the class is 3 (Class 3 The value of percent of control at 10^−7 M was more than 60% or the value of IC50 was more than 200 nM.).

`CN(C)c1cc(N[C@H]2CC[C@@H](NC(=O)c3c(F)c(F)c(F)c(F)c3F)CC2)nc2ccccc12` [compound 130]: the class is 3 (Class 3 The value of percent of control at 10^−7 M was more than 60% or the value of IC50 was more than 200 nM.).

The same assay, now with this note: activity class 1-3: percent of control at 10^-7 M or IC50.
Consider `CN(C)c1ccnc(N[C@H]2CC[C@@H](NCCOc3ccccc3Cl)CC2)n1` [compound 1515], for which the class is 3 (Class 3 The value of percent of control at 10^−7 M was more than 60% or the value of IC50 was more than 200 nM.).

Regarding `CN(C)c1nc(N[C@H]2CC[C@@H](NC(=O)Nc3ccc(Br)cc3Br)CC2)nc2c1CCCC2` [compound 1709], the class is given as 2 (Class 2: The value of percent of control at 10^−7 M was from 40% to 60% or the value of IC′50 was from 50 nM to 200 nM.).

With `COc1ccccc1OC(=O)NC[C@H]1CC[C@@H](Nc2nc3c(c(N(C)C)n2)CCCC3)CC1` [compound 1604], the class was 3 (Class 3 The value of percent of control at 10^−7 M was more than 60% or the value of IC50 was more than 200 nM.).

`CC(C)[C@@H]1CC[C@@H](C)C[C@H]1OC(=O)N[C@H]1CC[C@@H](Nc2cc(N(C)C)c3ccccc3n2)CC1` [compound 1553]: the class was 3 (Class 3 The value of percent of control at 10^−7 M was more than 60% or the value of IC50 was more than 200 nM.).

As for `COC(=O)NC[C@H]1CC[C@@H](Nc2nccc(N(C)C)n2)CC1` [compound 1655], the class is given as 3 (Class 3 The value of percent of control at 10^−7 M was more than 60% or the value of IC50 was more than 200 nM.).

`CN(C)c1cc(N[C@H]2CC[C@@H](CNC(=O)Oc3cccc(C(F)(F)F)c3)CC2)nc2ccccc12` [compound 1562]: the class is on record as 3 (Class 3 The value of percent of control at 10^−7 M was more than 60% or the value of IC50 was more than 200 nM.).

As to `C=CCOC(=O)N[C@H]1CC[C@@H](Nc2nc3c(c(N(C)C)n2)CCCC3)CC1` [compound 1590], the class is 3 (Class 3 The value of percent of control at 10^−7 M was more than 60% or the value of IC50 was more than 200 nM.).

The same assay, now with this note: class 1-3 by percent of control at 10^-7 M or IC50.
Regarding `CN(C)c1ccnc(N[C@H]2CC[C@@H](CNC(=O)c3cccc4c3-c3ccccc3C4=O)CC2)n1` [compound 444, N-[(cis-4-{[4-(dimethylamino)pyrimidin-2-yl]amino}cyclohexyl)methyl]-9-oxo-9H-fluorene-4-carboxamide], the class is listed as 2 (Class 2: The value of percent of control at 10^−7 M was from 40% to 60% or the value of IC′50 was from 50 nM to 200 nM.).

The same assay, now with this note: class by percent of control at 10^-7 M or IC50.
On to `CN(C)c1ccnc(N[C@H]2CC[C@@H](NC(=O)c3cn(S(=O)(=O)c4ccccc4)c4ccccc34)CC2)n1` [compound 908], for which the class was 3 (Class 3 The value of percent of control at 10^−7 M was more than 60% or the value of IC50 was more than 200 nM.).

Regarding `Cc1cc(C(=O)NC[C@H]2CC[C@@H](Nc3nc4c(c(N(C)C)n3)CCCC4)CC2)c(C(F)(F)F)o1` [compound 632], the class was 1 (Class 1: The value of percent of control at 10^−7 M was less than 40% or the value of IC50 was less than 50 nM.).

`CN(C)c1cc(N[C@H]2CC[C@@H](CNC(=O)C(Cc3ccccc3)c3ccccc3)CC2)nc2ccccc12` (relative stereo) [compound 793]: the class was 3 (Class 3 The value of percent of control at 10^−7 M was more than 60% or the value of IC50 was more than 200 nM.).

Consider `Cc1onc(-c2ccccc2)c1NC(=O)N[C@H]1CC[C@@H](Nc2nc3c(c(N(C)C)n2)CCCC3)CC1` [compound 1736], for which the class was 1 (Class 1: The value of percent of control at 10^−7 M was less than 40% or the value of IC50 was less than 50 nM.).

Turning to `CN(C)c1ccnc(N[C@H]2CC[C@@H](NC(=O)c3ccccc3SC(F)F)CC2)n1` [compound 300], the class is 3 (Class 3 The value of percent of control at 10^−7 M was more than 60% or the value of IC50 was more than 200 nM.).

`CN(C)c1cc(N[C@H]2CC[C@@H](NC(=O)Nc3ccccc3-c3ccccc3)CC2)nc2ccccc12` [compound 2124]: the class is given as 3 (Class 3 The value of percent of control at 10^−7 M was more than 60% or the value of IC50 was more than 200 nM.).

Consider `CN(C)c1nc(N[C@H]2CC[C@@H](CNC(=O)c3c(Cl)cccc3Cl)CC2)nc2c1CCCC2` [compound 656, 2,6-dichloro-N-[(cis-4-{[4-(dimethylamino)-5,6,7,8-tetrahydroquinazolin-2-yl]amino}cyclohexyl)methyl]benzamide], for which the class is on record as 2 (Class 2: The value of percent of control at 10^−7 M was from 40% to 60% or the value of IC′50 was from 50 nM to 200 nM.).

On to `COc1ccc(CCCCNC[C@H]2CC[C@@H](Nc3cc(N(C)C)c4ccccc4n3)CC2)cc1` [compound 1464], for which the class is on record as 3 (Class 3 The value of percent of control at 10^−7 M was more than 60% or the value of IC50 was more than 200 nM.).

Turning to `COc1ccccc1NC(=S)N[C@H]1CC[C@@H](Nc2nccc(N(C)C)n2)CC1` [compound 2263], the class is reported as 3 (Class 3 The value of percent of control at 10^−7 M was more than 60% or the value of IC50 was more than 200 nM.).

With `CN(C)c1ccnc(N[C@H]2CC[C@@H](NC(=O)c3ccccc3OC(F)(F)F)CC2)n1` [compound 336], the class is 3 (Class 3 The value of percent of control at 10^−7 M was more than 60% or the value of IC50 was more than 200 nM.).

Consider `COc1cc(Br)cc(CN[C@H]2CC[C@@H](Nc3nccc(N(C)C)n3)CC2)c1O` [compound 1212], for which the class is on record as 3 (Class 3 The value of percent of control at 10^−7 M was more than 60% or the value of IC50 was more than 200 nM.).

Regarding `CN(C)c1cc(N[C@H]2CC[C@@H](CNC(=O)c3ccc(Cl)s3)CC2)nc2ccccc12` [compound 792], the class is recorded as 3 (Class 3 The value of percent of control at 10^−7 M was more than 60% or the value of IC50 was more than 200 nM.).

Take `CN(C)c1ccnc(N[C@H]2CC[C@@H](NC(=O)Cc3ccc(Cl)c(Cl)c3)CC2)n1` [compound 838]: the class was 3 (Class 3 The value of percent of control at 10^−7 M was more than 60% or the value of IC50 was more than 200 nM.).

In the case of `COc1ccc(C)cc1NC(=O)N[C@H]1CC[C@@H](Nc2nc3c(c(N(C)C)n2)CCCC3)CC1` [compound 1801], the class was 3 (Class 3 The value of percent of control at 10^−7 M was more than 60% or the value of IC50 was more than 200 nM.).

With `COc1ccc(NC(=O)N[C@H]2CC[C@@H](Nc3nc4c(c(N(C)C)n3)CCCC4)CC2)cc1` [compound 1831], the class was 3 (Class 3 The value of percent of control at 10^−7 M was more than 60% or the value of IC50 was more than 200 nM.).

Regarding `CN(C)c1nc(N[C@H]2CC[C@@H](CNCCCCCCc3ccccc3)CC2)nc2c1CCCC2` [compound 1500], the class is on record as 3 (Class 3 The value of percent of control at 10^−7 M was more than 60% or the value of IC50 was more than 200 nM.).

Regarding `Cc1c(C(=O)N[C@H]2CC[C@@H](Nc3cc(N(C)C)c4ccccc4n3)CC2)cc(-c2ccccc2)n1-c1ccccc1` [compound 751], the class is 3 (Class 3 The value of percent of control at 10^−7 M was more than 60% or the value of IC50 was more than 200 nM.).

In the case of `CN(C)c1nc(N[C@H]2CC[C@@H](CNCc3c[nH]c4ccccc34)CC2)nc2c1CCCC2` [compound 1366], the class is 2 (Class 2: The value of percent of control at 10^−7 M was from 40% to 60% or the value of IC′50 was from 50 nM to 200 nM.).

The assay is the same for the next values; noted with them: class by percent of control at 10^−7 M or IC50.
On to `Cc1cc(N(C)C)nc(NC[C@H]2CC[C@@H](NC(=O)c3ccc(C(F)(F)F)cc3)CC2)n1` [compound 2740], for which the class is reported as 3 (Class 3 The value of percent of control at 10^−7 M was more than 60% or the value of IC50 was more than 200 nM.).

Consider `Cc1cnc(N[C@H]2CC[C@@H](NC(=O)c3cccnc3Oc3ccccc3F)CC2)nc1N(C)C` [compound 2891, N-(cis-4-{[4-(dimethylamino)-5-methylpyrimidin-2-yl]amino}cyclohexyl)-2-(2-fluorophenoxy)nicotinamide], for which the class was 1 (Class 1: The value of percent of control at 10^−7 M was less than 40% or the value of IC50 was less than 50 nM.).

With `Cc1cnc(N[C@H]2CC[C@@H](NC(=O)c3ccc(F)c(Cl)c3)CC2)nc1N(C)C` [compound 2932], the class is reported as 3 (Class 3 The value of percent of control at 10^−7 M was more than 60% or the value of IC50 was more than 200 nM.).

For the origin of these results see patent US20050197350A1, “Novel quinoline, tetrahydroquinazoline, and pyrimidine derivatives and methods of treatment related to the use thereof” (TAISHO PHARMACEUTICAL CO., LTD., priority 2003, published 2005).
